How the values were obtained:
Format in all cases: cell-based, human
[1] = tested on: hEAAT2 promoter activity, mRNA levels and protein levels; assay: Pathway-specific inhibitors on modulated hEAAT2 promoter activity, mRNA and protein in PHFA; conditions: PDTC 100 μM, PD 50 μM; for effect on EGF (or TGF-α) enhancement of hEAAT2 promoter activity, mRNA and protein levels: EGF 30 ng/ml; for effect on EGF (or TGF-α) enhancement of hEAAT2 promoter activity, mRNA and protein levels / effect on bromo-cAMP (or dbcAMP) enhancement of hEAAT2 expression: KT5720 5 μM, AG1478 1 μM, wortmannin 100 nM; for effect on bromo-cAMP (or dbcAMP) enhancement of hEAAT2 expression: bromo-cAMP 250 μM
Procedure: (§1) FIG. 5A-E. Effect of pharmacological inhibitors on hEAAT2 promoter activity, and mRNA and protein expression in PHFA following various treatment protocols. A. hEAAT2 promoter activity in PHFA, either untreated (−) or treated with EGF (30 ng/ml), in the absence (−) or presence (+) of KT5720 (5 μM), AG1478 (1 μM), PDTC (100 μM), wortmannin (WRT) (100 nM) or PD98049 (PD) (50 μM). B. hEAAT2 promoter activity in PHFA, either untreated (−) or treated with bromo-cAMP (250 μM) in the absence (−) or presence (+) of KT5720 (5 μM), AG1478 (1 μM), PDTC (100 μM), wortmannin (WRT) (100 nM) or PD98049 (PD) (50 μM). C. hEAAT2 promoter activity in PHFA, either untreated (−) or treated with TNF-α (200 U/ml), in the absence (−) or presence (+) of KT5720 (5 μM), AG1478 (1 μM), PDTC (100 μM), wortmannin (WRT) (100 nM) or PD98049 (PD) (50 μM). D. The effect of the various treatment protocols on hEAAT2 and GAPDH mRNA levels. Upper panel presents relative hEAAT2 RNA expression versus GAPDH expression relative to control untreated or treated samples based on scanning of autoradiograms. Lower panel, actual Northern blots. E. The effect of the various treatment protocols on EAAT2 and ACTIN protein levels. Upper panel presents relative EAAT2 protein expression versus ACTIN expression relative to control untreated or treated samples based on scanning of autoradiograms. Individual experiments were performed 3 times using triplicate samples and S.D. from the mean is presented.
Biochemical Basis for Positive and Negative Regulation of hEAAT2 Expression in PHFA. To define the biochemical pathways relevant to the regulation of hEAAT2 expression in PHFA resulting from the different treatment protocols, a pharmacological approach was employed. This involved the use of well-characterized pathway-specific inhibitors and determining effects on hEAAT2 promoter activity, mRNA levels and protein levels (FIG. 5). The inhibitors included, KT5720 (a protein kinase A. (PKA) inhibitor), AG1478 (a tyrosine kinase inhibitor), worttnannin (a phosphatidylinositol 3-kinase (PI-3K) inhibitor), pyrrolidinedithiocarbamate (PDTC, an inhibitor of NF-κB activation) and PD98059 (a mitogen-activated kinase (MEK1/MEK2) inhibitor) (Zelenaia et al., 2000, Mol Pharmacol 57(4):667-678).

hEAAT2 mRNA = assay: Northern blot of hEAAT2 mRNA in PHFA treated with modulators; conditions: for hEAAT2 mRNA expression: 7-day treatment, EGF 30 ng/ml, TGF-α 30 ng/ml, dbcAMP 200 μM, bromo-cAMP 100 μM, TNF-α 200 U/ml
Procedure: (§2) FIG. 4A-D. Effect of modulators of hEAAT2 activity on hEAAT2 expression and hEAAT2 promoter activity in PHFA. A. A Northern analysis of hEAAT2 and GAPDH mRNA expression following treatment with EGF (30 ng/ml), TGF-α (30 ng/ml), dbcAMP (200 μM, bromo-cAMP (100 μM) or TNF-α (200 U/ml) for 7 days. B. Nuclear run-on assays determining the relative rates of hEAAT2 and GAPDH transcription as a function of 7-day treatment with the same concentrations of the indicated agents. C. A time course of mRNA expression of hEAAT2 and GAPDH following treatment with EGF, bromo-cAMP or TNF-α (same concentrations as in A.). D. Fold luciferase activity in PHFA transfected with flhEAAT2Prom-luc or various deletion mutants of hEAAT2 and non-transfected controls treated with the indicated compounds for four days.
(§3) Northern and Western Blotting Assays. Total cellular RNA was isolated by the guanidinium/phenol extraction method and Northern blotting was performed as described (Huang et al., 2001, Oncogene 20(48):7051-7063; Su et al., 2000, Oncogene 19(30):3411-3421; Su et al., 2001, Nucleic Acids Res 29(8):1661-1671). Western blotting assays were performed as described (Su et al., 1998, Proc Natl Acad Sci USA 95(24):14400-14405; Su et al., 2002, Oncogene 21(22):3592-602).
Positive and Negative Regulation of hEAAT2 Transcription, Promoter Activity and mRNA Levels in PHFA. Several enhancers of GLT-1 expression in rat astrocytes have been identified, including epidermal growth factor (EGF), transforming growth factor-α (TGF-α) and dibutyryl cyclic AMP (dbcAMP) (Swanson et al., 1997, J Neurosci 17(3):932-940; Zelenaia et al., 2000, Mol Pharmacol 57(4):667-678). Based on these considerations, experiments were performed to determine if these agents similarly modify human hEAAT2 expression in PHFA. Consistent with previous observations in rat astrocytes, 7-day treatment with EGF, TGF-α, and two analogs of cAMP, dbcAMP and bromo-cAMP, stimulated hEAAT2 mRNA expression in PHFA, whereas TNF-α decreased expression (FIG. 4B). […] In contrast, TNF-α decreased expression by 48 h (FIG. 4C).

hEAAT2 transcription = assay: Nuclear run-on assay of hEAAT2 transcription in PHFA; conditions: 7-day treatment
Procedure: as §2
Primer Extension Analysis and Nuclear Run-on Assays. Primer extension assays were performed as described (Su et al., 2000, Oncogene 19(30):3411-3421). A primer with the sequence 5′-[…]-3′ (SEQ ID NO:6) complementary to the 5′ UTR of the hEAAT2 cDNA was used for this assay. Nuclear run-on assays were performed as described (Su et al., 1997, Proc Natl Acad Sci USA 94(17):9125-9130).
To examine whether stimulation of hEAAT2 expression involves transcriptional changes, nuclear run-on assays were performed.

hEAAT2 promoter = assay: flhEAAT2Prom-luc and deletion mutant luciferase reporter assay in PHFA treated with modulators; conditions: deletion mutant; for stimulation of promoter activity after deletion of bp −2426 to bp −703 / upregulation of promoter activity after deletion of bp −703 to bp −326: four day treatment
Procedure: as §2
Construction of hEAAT2 Promoter Deletion Mutants and Performance of the Luciferase Assays. 5′-deletion mutants of the hEAAT2 promoter were made with exonuclease III digestion using the Erase-A-Base System (Promega) as described for the PEG-3 promoter (Su et al., 2000, Oncogene 19(30):3411-3421). The flhEAAT2Prom-luc and flhEAAT2Prom-luc deletion mutants were cloned into the pGL3-basic luciferase reporter vector (Promega) and luciferase reporter assays were performed as described (Su et al., 2000, Oncogene 19(30):3411-3421; Su et al., 2001, Nucleic Acids Res 29(8):1661-1671), except that instead of using lipofectamine, which was toxic to PHFA, the calcium phosphate precipitation transfection technique was used (Babiss et al., 1986, Proc Natl Acad Sci USA 83(7):2167-2171).
Preferential Expression of the hEAAT2 Promoter in PHFA and Deletion Analysis of the hEAAT2 Promoter. hEAAT2 is expressed in brain-derived cells, mainly astrocytes (Tanaka et al., 1997, Science 276(5319):1699-1702; Anderson et al., 2000, Glia 32(1):1-14). Experiments were performed to confirm hEAAT2 promoter activity in normal human astrocytes and to determine expression levels in other cell types (FIG. 2A). Primary early passage and established human normal and tumor cell lines were co-transfected with a putative full-length ˜2.5 kb hEAAT2 promoter, a SacII fragment extending from bp −2426 to bp +44, was cloned into the pGL3-basic vector (Promega), where it drove expression of the firefly luciferase (luc) gene, and a pSV-β-galactosidase expression plasmid. Relative fold expression of a full length hEAAT2 promoter-luciferase (flhEAAT2Prom-luc) construct was determined as described (Su et al., 2000, Oncogene 19(30):3411-3421; Su et al., 2001, Nucleic Acids Res 29(8):1661-1671), and activity versus transfection with a pSV-β-galactosidase plasmid was calculated as described (Su et al., 2000, Oncogene 19(30):3411-3421; Su et al., 2001, Nucleic Acids Res 29(8):1661-1671) to equalize for differences in transfection efficiency.
To examine further the relationship between hEAAT2 and treatment with the various glutamate transporter modulators, transient transfection assays were performed in PHFA using the flhEAAT2Prom-luc constructs and various deletions thereof (FIG. 4D). […] In the case of dbcAMP, promoter activity was enhanced by ˜3-fold.

hEAAT2 protein = assay: Western blot of EAAT2 protein in PHFA
Procedure: as §1, §3

Row | Compound | effect on EGF (or TGF-α) enhancement of hEAAT2 promoter activity, mRNA and protein levels [1] | effect on bromo-cAMP (or dbcAMP) enhancement of hEAAT2 expression [1] | effect on TNF-α-decreased hEAAT2 promoter, mRNA and protein levels ([1]; cotreatment with TNF-α 200 U/ml) | hEAAT2 mRNA expression (hEAAT2 mRNA) | time of highest (maximum) hEAAT2 mRNA upregulation (hEAAT2 mRNA; time course) | time by which hEAAT2 mRNA expression was changed (hEAAT2 mRNA; time course, bromo-cAMP enhanced, TNF-α decreased) | relative rate of transcription of hEAAT2 RNA compared with GAPDH (hEAAT2 transcription) | stimulation of promoter activity after deletion of bp −2426 to bp −703 (hEAAT2 promoter) | upregulation of promoter activity after deletion of bp −703 to bp −326 (hEAAT2 promoter) | hEAAT2 protein levels (hEAAT2 protein) | promoter activity after further deletion of bp −326 to bp −120 (hEAAT2 promoter)
1 | COc1cc2ncnc(Nc3cccc(Cl)c3)c2cc1OC [AG1478] | abolished | unaffected |  |  |  |  |  |  |  |  | 
2 | CCCCCCOC(=O)[C@]1(O)C[C@@H]2O[C@@]1(C)n1c3ccccc3c3c4c(c5c6ccccc6n2c5c31)C(=O)NC4 [KT5720] | unaffected | eliminated |  |  |  |  |  |  |  |  | 
3 | COc1cccc(-c2cc(=O)c3ccccc3o2)c1N [PD98059] | significantly inhibited but not extinguished | partially inhibited | partial restoration of normal levels of hEAAT2 protein |  |  |  |  |  |  |  | 
4 | Nc1ncnc2c1nc(Br)n2[C@@H]1O[C@@H]2COP(=O)(O)O[C@H]2[C@H]1O [bromo-cAMP] |  |  |  | stimulated | 48 h | ≤ 24 h | elevated | did not significantly decrease | most relevant | upregulated | 
5 | EGF: epidermal growth factor, from Invitrogen |  |  |  | stimulated | 48 h |  | elevated | did not significantly decrease | a level approximating that found in uninduced PHFA | upregulated | did not result in any additional reduction
6 | TGF-α: transforming growth factor-α, from Invitrogen |  |  |  | stimulated |  |  | elevated | did not significantly decrease | a level approximating that found in uninduced PHFA | upregulated | did not result in any additional reduction
